Here are results for 19 compounds from PMC6173509, “C-3- and C-4-Substituted Bicyclic Coumarin Sulfamates as Potent Steroid Sulfatase Inhibitors” (ACS Omega, 2018).

In data set [1] the target is T1, steroid sulfatase (STS) (Homo sapiens, UniProt P08842).
T1 sequence (P08842 22-583): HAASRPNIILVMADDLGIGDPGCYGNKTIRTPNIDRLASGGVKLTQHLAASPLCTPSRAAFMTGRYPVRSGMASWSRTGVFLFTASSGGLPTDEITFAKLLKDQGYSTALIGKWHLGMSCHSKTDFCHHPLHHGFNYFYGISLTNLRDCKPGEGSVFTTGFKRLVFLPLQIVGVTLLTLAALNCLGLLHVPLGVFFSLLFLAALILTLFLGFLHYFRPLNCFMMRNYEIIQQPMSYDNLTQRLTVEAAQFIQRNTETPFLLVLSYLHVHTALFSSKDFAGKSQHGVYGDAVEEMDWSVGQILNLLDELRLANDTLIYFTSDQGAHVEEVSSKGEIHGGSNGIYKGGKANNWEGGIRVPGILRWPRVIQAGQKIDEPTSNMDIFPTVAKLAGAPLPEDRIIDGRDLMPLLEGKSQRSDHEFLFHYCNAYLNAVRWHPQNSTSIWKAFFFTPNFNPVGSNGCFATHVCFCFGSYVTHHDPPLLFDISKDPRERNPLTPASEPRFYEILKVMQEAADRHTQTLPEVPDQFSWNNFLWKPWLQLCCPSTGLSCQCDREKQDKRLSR
Details: a placental microsomal preparation from a sulfatase-positive human placenta from a normal term pregnancy; from tissue; host or cells: human placenta (microsomal preparation). The following applies: cited from earlier work; for % Inhibition of STS Activity in Placental Microsomes at 0.1 μM: 0.1 μM inhibitor; for % Inhibition of STS Activity in Placental Microsomes at 1 μM: 1 μM inhibitor; for % Inhibition of STS Activity in Placental Microsomes at 10 μM: 10 μM inhibitor.

For data set [2], the target named is T1, steroid sulfatase (STS). In words: STS inhibition in placental microsomes. It is filed as biochemical. Details: a placental microsomal preparation from a sulfatase-positive human placenta from a normal term pregnancy; from tissue; host or cells: human placenta (microsomal preparation). To be noted: 20 μM E1S; for inhibition at 0.01 µM: 0.01 μM inhibitor; for inhibition at 0.1 µM: 0.1 μM inhibitor; for inhibition at 1 µM: 1 μM inhibitor; for inhibition at 10 µM: 10 μM inhibitor.

The target in data set [3] is T1, steroid sulfatase (STS). In words: STS inhibition in intact MCF-7 breast cancer cells. To be noted: for IC50: 3 nM E1S; for inhibition at 0.01 µM: MCF7, read-out: % Inhibition of STS Activity in Intact MCF-7 Breast Cancer Cells at 0.01 μM; for inhibition at 0.1 µM: MCF7, read-out: % Inhibition of STS Activity in Intact MCF-7 Breast Cancer Cells at 0.1 μM; for inhibition at 1 µM: MCF7, read-out: % Inhibition of STS Activity in Intact MCF-7 Breast Cancer Cells at 1 μM; for inhibition at 10 µM: MCF7, read-out: % Inhibition of STS Activity in Intact MCF-7 Breast Cancer Cells at 10 μM. On the set-up: endogenous in cells; host or cells: MCF-7 breast cancer cells. It is filed as cell-based.

For `CCCc1cc(=O)oc2cc(OS(N)(=O)=O)ccc12` [compound 5], on steroid sulfatase (STS) [1], the “% Inhibition of STS Activity in Placental Microsomes at 0.1 μM” value (“% Inhibition of STS Activity … at 0.1 μM” below) is 42%, the “% Inhibition of STS Activity in Placental Microsomes at 1 μM” value (“% Inhibition of STS Activity … at 1 μM” for short) was 94% and the “% Inhibition of STS Activity in Placental Microsomes at 10 μM” value (“% Inhibition of STS Activity … at 10 μM” below) is reported as 96%.
On steroid sulfatase (STS) [2], `CCCCCc1cc(=O)oc2cc(OS(N)(=O)=O)ccc12` [compound 10, 4-Pentylcoumarin-7-O-sulfamate] returned an inhibition at 0.01 µM of 22%, an inhibition at 0.1 µM of 70%, an inhibition at 1 µM of 97% and an inhibition at 10 µM of 99%. This compound displayed an IC50 at steroid sulfatase (STS) [2] of 40 nM. Moreover, on steroid sulfatase (STS) [3], the 50% inhibitory concentration (IC50) turned out to be 10 nM, the inhibition at 0.01 µM came to 52%, the inhibition at 0.1 µM was 88% and the inhibition at 1 µM worked out at 92%. Besides, the inhibition at 10 µM on steroid sulfatase (STS) [3] was found to be 95%.
With `CCc1cc(=O)oc2cc(OS(N)(=O)=O)ccc12` [compound 4], on steroid sulfatase (STS) [1], the “% Inhibition of STS Activity … at 0.1 μM” value was 35%, the “% Inhibition of STS Activity … at 1 μM” value is reported as 88% and the “% Inhibition of STS Activity … at 10 μM” value is reported as greater than 99%.
As for `NS(=O)(=O)Oc1ccc2c(CCc3ccccc3)cc(=O)oc2c1` [compound 24, 4-(2-Phenylethyl)coumarin-7-O-sulfamate], on steroid sulfatase (STS) [2], the inhibition at 0.01 µM was 8%, the inhibition at 0.1 µM turned out to be 53%, the inhibition at 1 µM worked out at 93% and the inhibition at 10 µM came out at 98%. This compound also had an IC50 against steroid sulfatase (STS) [2] of 82 nM. On steroid sulfatase (STS) [3], the IC50 was 18 nM, the inhibition at 0.01 µM was determined as 39%, the inhibition at 0.1 µM is 84% and the inhibition at 1 µM came to 95%. On steroid sulfatase (STS) [3], the inhibition at 10 µM was found to be 98%.
Consider `Cc1c(Cc2ccccc2)c(=O)oc2cc(OS(N)(=O)=O)ccc12` [compound 41, 3-Benzyl-4-methylcoumarin-7-O-sulfamate], for which, at steroid sulfatase (STS) [2], the inhibition at 0.01 µM came out at 53%, the inhibition at 0.1 µM was 94% and the inhibition at 1 µM came to 99%. For the same compound, at steroid sulfatase (STS) [3], the inhibition at 0.01 µM stood at 85%, the inhibition at 0.1 µM stood at 91%, the inhibition at 1 µM is 94% and the inhibition at 10 µM was 97%.
For the compound `CCCCCCCc1c(C)c2ccc(OS(N)(=O)=O)cc2oc1=O` [compound 30, 3-Heptyl-4-methylcoumarin-7-O-sulfamate], on steroid sulfatase (STS) [2], the inhibition at 0.01 µM worked out at 23%, the inhibition at 0.1 µM is 65%, the inhibition at 1 µM came to 97% and the inhibition at 10 µM was 99%. On steroid sulfatase (STS) [3], the inhibition at 0.1 µM came to 99%, the inhibition at 1 µM is 100% and the inhibition at 10 µM is 100%.
In the case of `CCCCCCCCCCc1cc(=O)oc2cc(OS(N)(=O)=O)ccc12` [compound 15, 4-Decylcoumarin-7-O-sulfamate], at steroid sulfatase (STS) [2], 0.01 µM produced 17% inhibition, the inhibition at 0.1 µM was found to be 74%, testing at 1 µM gave an inhibition of 96% and testing at 10 µM gave an inhibition of 99%. The same compound yielded an IC50 against steroid sulfatase (STS) [2] of 60 nM. At steroid sulfatase (STS) [3], the inhibition at 0.01 µM was determined as 86%, the inhibition at 0.1 µM amounted to 95%, the inhibition at 1 µM is 98% and the inhibition at 10 µM turned out to be 100%.
Consider `Cc1c(CCc2ccccc2)c(=O)oc2cc(OS(N)(=O)=O)ccc12` [compound 42, 4-Methyl-3-(2-phenylethyl)coumarin-7-O-sulfamate], for which, at steroid sulfatase (STS) [2], the inhibition at 0.01 µM was found to be 45%, at 0.1 µM the inhibition was 91%, at 1 µM the inhibition was 99% and testing at 10 µM gave an inhibition of 100%. On steroid sulfatase (STS) [2], this compound had a half-maximal inhibitory concentration (IC50) of 33 nM. Besides, on steroid sulfatase (STS) [3], the half-inhibitory concentration (IC50) stood at 1.1 nM, the inhibition at 0.01 µM worked out at 93%, the inhibition at 0.1 µM stood at 98% and the inhibition at 1 µM is 99%.
`CCCc1c(C)c2ccc(OS(N)(=O)=O)cc2oc1=O` [compound 8]: on steroid sulfatase (STS) [1], the “% Inhibition of STS Activity … at 0.1 μM” value is given as 83%, the “% Inhibition of STS Activity … at 1 μM” value was 97% and the “% Inhibition of STS Activity … at 10 μM” value is given as greater than 99%.
Take `Cc1c(CCCc2ccccc2)c(=O)oc2cc(OS(N)(=O)=O)ccc12` [compound 43, 4-Methyl-3-[3-phenylpropyl]coumarin-7-O-sulfamate]: at steroid sulfatase (STS) [2], the inhibition at 0.1 µM stood at 47% and the inhibition at 1 µM amounted to 99%. Further, on steroid sulfatase (STS) [3], the inhibition at 0.1 µM amounted to 87%, the inhibition at 1 µM amounted to 99% and the inhibition at 10 µM turned out to be 100%.
For the compound `CCCCCCCCCCc1c(C)c2ccc(OS(N)(=O)=O)cc2oc1=O` [compound 33, 3-Decyl-4-methylcoumarin-7-O-sulfamate], at steroid sulfatase (STS) [2], the inhibition at 0.01 µM stood at 3%, 0.1 µM produced 33% inhibition, testing at 1 µM gave an inhibition of 79% and at 10 µM the inhibition was 94%. Besides, the IC50 against steroid sulfatase (STS) [2] came out at 250 nM. On steroid sulfatase (STS) [3], the IC50 was less than 10 nM, the inhibition at 0.01 µM was 80%, the inhibition at 0.1 µM worked out at 97% and the inhibition at 1 µM was 99%. On steroid sulfatase (STS) [3], the inhibition at 10 µM stood at 97%.
On steroid sulfatase (STS) [2], `CCCCc1cc(=O)oc2cc(OS(N)(=O)=O)ccc12` [compound 9, 4-Butylcoumarin-7-O-sulfamate] had an inhibition at 0.01 µM of 10%, an inhibition at 0.1 µM of 49%, an inhibition at 1 µM of 91% and an inhibition at 10 µM of 98%. Moreover, 102 nM corresponded to half-maximal inhibition at steroid sulfatase (STS) [2] (IC50). Besides, on steroid sulfatase (STS) [3], the inhibition at 0.1 µM amounted to 85%, the inhibition at 1 µM worked out at 91% and the inhibition at 10 µM came to 93%.
On steroid sulfatase (STS) [2], `NS(=O)(=O)Oc1ccc2c(-c3ccccc3)cc(=O)oc2c1` [compound 22, 4-Phenylcoumarin-7-O-sulfamate] had an IC50 of 200 nM. Further, at steroid sulfatase (STS) [3], the inhibition at 0.1 µM amounted to 36%, the inhibition at 1 µM stood at 79% and the inhibition at 10 µM stood at 87%.
At steroid sulfatase (STS) [2], `CCCCCCCCCc1c(C)c2ccc(OS(N)(=O)=O)cc2oc1=O` [compound 32, 4-Methyl-3-nonylcoumarin-7-O-sulfamate] showed an inhibition at 0.01 µM of 21%, an inhibition at 0.1 µM of 85%, an inhibition at 1 µM of 97% and an inhibition at 10 µM of 98%. In addition, at steroid sulfatase (STS) [3], the IC50 is roughly 10 nM, the inhibition at 0.01 µM was 57%, the inhibition at 0.1 µM was 96% and the inhibition at 1 µM was 99%. For the same compound, at steroid sulfatase (STS) [3], the inhibition at 10 µM amounted to 99%.
`CCc1c(C)c2ccc(OS(N)(=O)=O)cc2oc1=O` [compound 7]: on steroid sulfatase (STS) [1], the “% Inhibition of STS Activity … at 0.1 μM” value is 57%, the “% Inhibition of STS Activity … at 1 μM” value is reported as 96% and the “% Inhibition of STS Activity … at 10 μM” value was greater than 99%.
`CCCCCCc1cc(=O)oc2cc(OS(N)(=O)=O)ccc12` [compound 11, 4-Hexylcoumarin-7-O-sulfamate]: on steroid sulfatase (STS) [2], the inhibition at 0.01 µM was determined as 6%, the inhibition at 0.1 µM worked out at 70%, the inhibition at 1 µM is 97% and the inhibition at 10 µM turned out to be 99%. Moreover, at steroid sulfatase (STS) [2], the IC50 came to 52 nM. For the same compound, on steroid sulfatase (STS) [3], the inhibition at 0.1 µM is 87%, the inhibition at 1 µM came out at 90% and the inhibition at 10 µM stood at 93%.
At steroid sulfatase (STS) [2], `CCCCCCCCc1c(C)c2ccc(OS(N)(=O)=O)cc2oc1=O` [compound 31, 4-Methyl-3-octylcoumarin-7-O-sulfamate] yielded an inhibition at 0.01 µM of 21%, an inhibition at 0.1 µM of 71%, an inhibition at 1 µM of 98% and an inhibition at 10 µM of 99%. Also, on steroid sulfatase (STS) [3], the inhibition at 0.1 µM amounted to 99%, the inhibition at 1 µM came to 100% and the inhibition at 10 µM turned out to be 100%.
At steroid sulfatase (STS) [2], `CCCCCc1c(C)c2ccc(OS(N)(=O)=O)cc2oc1=O` [compound 28, 4-Methyl-3-pentylcoumarin-7-O-sulfamate] gave an inhibition at 0.01 µM of 41%, an inhibition at 0.1 µM of 94%, an inhibition at 1 µM of 99% and an inhibition at 10 µM of 100%. Moreover, on steroid sulfatase (STS) [2], half-maximal inhibition (IC50) required 12 nM. On steroid sulfatase (STS) [3], the inhibition at 0.1 µM was 97%, the inhibition at 1 µM came to 99% and the inhibition at 10 µM is 100%.
On steroid sulfatase (STS) [2], `CCCCCCCCc1cc(=O)oc2cc(OS(N)(=O)=O)ccc12` [compound 13, 4-Octylcoumarin-7-O-sulfamate] had an inhibition at 0.01 µM of 28%, an inhibition at 0.1 µM of 74%, an inhibition at 1 µM of 97% and an inhibition at 10 µM of 99%. Moreover, the midpoint of inhibition against steroid sulfatase (STS) [2], the IC50, lay at 68 nM. On steroid sulfatase (STS) [3], the inhibition at 0.1 µM was 90%, the inhibition at 1 µM was 97% and the inhibition at 10 µM worked out at 99%.

For orientation: inhibition means the share of the control response that was lost under treatment. In general, IC50 refers to the point on the concentration scale where inhibition reaches its midpoint.
